Experimental data from US9365499B2, “9-aminomethyl substituted tetracycline compounds” (KBP Biosciences Co., Ltd., priority 2011, dated 2016).
≈ marks a conversion by molar mass, not a printed value. Where two headings read alike, the source gives them in different places.

What was measured:
[1] = tested on: Methicillin-resistant Staphycoccus epidermidis (MRSE); assay: antibacterial activity in vitro, agar dilution method; format: cell-based; conditions: Staphylococcus epidermidis
Source text: (§1) The antibacterial spectrum and in vitro antibacterial activity of the compound of the present invention
(§2) Experimental method: the agar dilution method, with reference to Clinical And Laboratory Standards Institute. Methods for Dilution Antimicrobial Susceptibility Tests for Bacteria That Grow Aerobically; Approved Standard-Seventh Edition. CLSI Document M7-A7. Vol 26, no. 2, Wayne, Pa.: Clinical and Laboratory Standards Institute, 2006.
(§3) Wherein MIC represents the minimum inhibitory concentration, MIC90 represents the 90% inhibitory concentration.

Escherichia coli = assay: as above; format: cell-based
Source text: as §1, §2, §3

Klebsiella pneumoniae = assay: as above; format: cell-based
Source text: as §1, §2, §3

Acinetobacter baumannii = assay: as above; format: cell-based
Source text: as §1, §2, §3

Klebsiella oxytoca = assay: as above; format: cell-based; conditions: Table 3
Source text: as §1, §2, §3

[2] = tested on: Methicillin-resistant Staphylococcus aureus (MRSA); assay: as above; format: cell-based
Source text: as §1, §2, §3

Streptococcus pyogenes = assay: as above; format: cell-based; conditions: Table 2
Source text: as §1, §2, §3

in vivo = assay: in vivo; parameters: species or system male SD rats; conditions: male, SD, rat, 5 mg/kg
Experimental: Test animals: male SD rats, weighing 180-280 g, purchased from Beijing Vital River Laboratory Animal Technology Co., Ltd.; animal Certificate of Conformity: SCXK (Beijing) 2006-0009. Six rats were tested for each compound. the compounds of the present invention, prepared in accordance with the methods of above Examples, dissolved in physiological saline. tigecycline, dissolved in physiological saline. Administration of the compounds of the present invention: intravenous bolus injection (iv), dose: 5 mg/kg, administrating volume: 5 mL/kg; gavage (po), dose: 5 mg/kg, administrating volume: 5 mL/kg. Administration of tigecycline: gavage (po), dose: 10 mg/kg, administrating volume: 5 mL/kg. Prior to administration help but water fasting for 16 hours, 4 hours after administration to food. Compound 9: iv blood sampling time point: denoted by 0 min before administration, 5 min, 15 min, 30 min, 1 […] after administration; po blood sampling time point: denoted by 0 min before administration, 5 min, 15 min, 30 min, 1 […] after administration; Compound 20: iv blood sampling time point: 5 min, 15 min, 30 min, 1 […] after administration; po blood sampling time point: 10 min, 30 min, 1 […] after administration; Compound 23: iv blood sampling time point: denoted by 0 min before administration, 5 min, 15 min, 30 min, 1 […] after administration; po blood sampling time point: denoted by 0 min before administration, 5 min, 15 min, 30 min, 1 […] after administration; Tigecycline: iv blood sampling time point: 5 min, 15 min, 30 min, 1 h, 2 h, 4 h, 6 h, 8 h after administration; po blood sampling time point: 10 min, 30 min, 1 […] after administration. Each time point is taken around 100 μl whole blood and placed in a heparinized tube, centrifugated at 8000 rpm/min at 4° C. for 6 minutes in a low-temperature high-speed centrifuge to separate plasma, the resulting plasma was frozen at -80° C. refrigerator. Plasma samples analysis: 20 μl of plasma was taken and added 200 μl of internal standard solution, subjected to vortex for 3 minutes, then to centrifugation at 12,000 rpm/min for 5 minutes. 100 μl of supernatant was taken and analyzed using LC-MS/MS. Formula Absolute Bioavailability F%=[AUC](po)×Dose(iv)/[AUC](iv)×Dose(po)

Streptococus agalactiae = assay: antibacterial activity in vitro, agar dilution method; format: cell-based; conditions: Table 4
Source text: as §1, §2, §3

Enterococcus faecalis = assay: as above; format: cell-based; conditions: Table 4
Source text: as §1, §2, §3

[3] = tested on: Acinetobacter calcoaceticus; assay: as above; format: cell-based; conditions: Table 4
Source text: as §1, §2, §3

[4] = Table 3, agar dilution, read-out: antibacterial activity MIC, Acinetobacter baumannii
[5] = Table 4, agar dilution, read-out: antibacterial activity MIC, Acinetobacter baumannii

SMILES	MIC ([1]; Table 3) [µg/mL]	MIC (Escherichia coli; Table 3) [µg/mL]	MIC (Klebsiella pneumoniae; Table 3) [µg/mL]	MIC (Acinetobacter baumannii; [4]) [µg/mL]	MIC (Klebsiella oxytoca) [µg/mL]	MIC ([2]; Table 3, agar dilution) [µg/mL]	MIC (Streptococus agalactiae) [µg/mL]	MIC (Enterococcus faecalis) [µg/mL]	MIC [3] [µg/mL]	MIC (Escherichia coli; Table 4) [µg/mL]	MIC (Klebsiella pneumoniae; Table 4) [µg/mL]	MIC (Acinetobacter baumannii; [5]) [µg/mL]	MIC ([2]; Table 4, agar dilution) [µg/mL]	also measured
CN(C)c1cc(CN2CC(C)(C)C2)c(O)c2c1C[C@H]1C[C@H]3[C@H](N(C)C)C(O)=C(C(N)=O)C(=O)[C@@]3(O)C(O)=C1C2=O [Compound 1, (4S,4aS,5aR,12aS)-9-((3,3-dimethylazetidin-1-yl)methyl)-4,7-bis(dimethylamino)-3,10,12,12a-tetrahydroxy-1,1′-dioxo-1,4,4a,5,5a,6,11,12a-octahydrotetracene-2-carboxamide]	1 (≈ 1.8 µM)	1 (≈ 1.8 µM)	2 (≈ 3.61 µM)	1 (≈ 1.8 µM)	1 (≈ 1.8 µM)	0.5 (≈ 0.901 µM)	–	–	–	–	–	–	–	–
CN(C)c1cc(CNC2CC3(CC3)C2)c(O)c2c1C[C@H]1C[C@H]3[C@H](N(C)C)C(O)=C(C(N)=O)C(=O)[C@@]3(O)C(O)=C1C2=O [Compound 3, (4S,4aS,5aR,12aS)-9-((spiro[2.3]hexan-5-ylamino)methyl)-4,7-bis(dimethylamino)-3,10,12,12a-tetrahydroxy-1,1′-dioxo-1,4,4a,5,5a,6,11,12a-octahydrotetracene-2-carboxamide]	–	–	–	–	–	–	–	–	–	–	–	–	–	MIC (Streptococcus pyogenes): 0.06 µg/mL (≈ 0.106 µM); MIC ([1]; Table 2): 0.5 µg/mL (≈ 0.882 µM); MIC (Escherichia coli; Table 2): 1 µg/mL (≈ 1.76 µM); MIC (Klebsiella pneumoniae; Table 2): 2 µg/mL (≈ 3.53 µM); MIC (Acinetobacter baumannii; Table 2, agar dilution, read-out: antibacterial activity MIC, Acinetbacter baumannii): 4 µg/mL (≈ 7.06 µM); MIC ([2]; Table 2, agar dilution): 0.5 µg/mL (≈ 0.882 µM)
CN(C)c1cc(CN2CC3(CCC3)C2)c(O)c2c1C[C@H]1C[C@H]3[C@H](N(C)C)C(O)=C(C(N)=O)C(=O)[C@@]3(O)C(O)=C1C2=O [Compound 9, (4S,4aS,5aR,12aS)-9-(2-azaspiro[3.3]heptan-2-ylmethyl)-4,7-bis(dimethylamino)-3,10,12,12a-tetrahydroxy-1,1′-dioxo-1,4,4a,5,5a,6,11,12a-octahydrotetracene-2-carboxamide]	0.5 (≈ 0.882 µM)	0.5 (≈ 0.882 µM)	1 (≈ 1.76 µM)	4 (≈ 7.06 µM)	1 (≈ 1.76 µM)	0.5 (≈ 0.882 µM)	–	–	–	–	–	–	–	AUC(0-t) (in vivo; iv): 6070 ng·h/mL; Vd (in vivo; iv): 4.65 L/kg; clearance (in vivo; iv): 13.3 mL/min/kg; half-life (in vivo; iv): 5.85 h; AUC(0-t) (in vivo; po): 216 ng·h/mL; Cmax (in vivo; po): 35.6 ng/mL; Tmax (in vivo; po): 1 h; bioavailability (in vivo; po): 3.56%
CN(C)c1cc(CN2CC3(C2)CC(F)(F)C3)c(O)c2c1C[C@H]1C[C@H]3[C@H](N(C)C)C(O)=C(C(N)=O)C(=O)[C@@]3(O)C(O)=C1C2=O [Compound 16, (4S,4aS,5aR,12aS)-9-((6,6-difluoro-2-azaspiro[3.3]heptan-2-yl)methyl)-4,7-bis(dimethylamino)-3,10,12,12a-tetrahydroxy-1,1′-dioxo-1,4,4a,5,5a,6,11,12a-octahydrotetracene-2-carboxamide]	0.5 (≈ 0.83 µM)	1 (≈ 1.66 µM)	1 (≈ 1.66 µM)	1 (≈ 1.66 µM)	1 (≈ 1.66 µM)	0.5 (≈ 0.83 µM)	–	–	–	–	–	–	–	–
CN(C)c1cc(CN2CC(F)C2)c(O)c2c1C[C@H]1C[C@H]3[C@H](N(C)C)C(O)=C(C(N)=O)C(=O)[C@@]3(O)C(O)=C1C2=O [Compound 19, (4S,4aS,5aR,12aS)-4,7-bis(dimethylamino)-9-((3-fluoroazetidin-1-yl)methyl)-3,10,12,12a-tetrahydroxy-1,11-dioxo-1,4,4a,5,5a,6,11,12a-octahydrotetracene-2-carboxamide]	0.5 (≈ 0.918 µM)	1 (≈ 1.84 µM)	1 (≈ 1.84 µM)	0.25 (≈ 0.459 µM)	0.25 (≈ 0.459 µM)	0.5 (≈ 0.918 µM)	–	–	–	–	–	–	–	–
CN(C)c1cc(CN2CCC3(CC2)CC3)c(O)c2c1C[C@H]1C[C@H]3[C@H](N(C)C)C(O)=C(C(N)=O)C(=O)[C@@]3(O)C(O)=C1C2=O [Compound 20, (4S,4aS,5aR,12aS)-9-(6-azaspiro[2.5]octan-6-ylmethyl)-4,7-bis(dimethylamino)-3,10,12,12a-tetrahydroxy-1,1′-dioxo-1,4,4a,5,5a,6,11,12a-octahydrotetracene-2-carboxamide]	1 (≈ 1.72 µM)	0.5 (≈ 0.861 µM)	2 (≈ 3.44 µM)	1 (≈ 1.72 µM)	1 (≈ 1.72 µM)	0.5 (≈ 0.861 µM)	–	–	–	–	–	–	–	AUC(0-t) (in vivo; iv): 11600 ng·h/mL; Vd (in vivo; iv): 2.22 L/kg; clearance (in vivo; iv): 7.33 mL/min/kg; half-life (in vivo; iv): 4.98 h; AUC(0-t) (in vivo; po): 605 ng·h/mL; Cmax (in vivo; po): 116 ng/mL; Tmax (in vivo; po): 2 h; bioavailability (in vivo; po): 5.22%
CN(C)c1cc(CN2CC3CC(C3)C2)c(O)c2c1C[C@H]1C[C@H]3[C@H](N(C)C)C(O)=C(C(N)=O)C(=O)[C@@]3(O)C(O)=C1C2=O [Compound 24, (4S,4aS,5aR,12aS)-9-(3-azabicyclo[3.1.1]heptan-3-ylmethyl)-4,7-bis(dimethylamino)-3,10,12,12a-tetrahydroxy-1,1′-dioxo-1,4,4a,5,5a,6,11,12a-octahydrotetracene-2-carboxamide]	–	–	–	–	–	–	0.125 (≈ 0.221 µM)	0.25 (≈ 0.441 µM)	0.25 (≈ 0.441 µM)	1 (≈ 1.76 µM)	2 (≈ 3.53 µM)	1 (≈ 1.76 µM)	0.5 (≈ 0.882 µM)	–
CN(C)c1cc(CN2CC3C(C2)C3(C)C)c(O)c2c1C[C@H]1C[C@H]3[C@H](N(C)C)C(O)=C(C(N)=O)C(=O)[C@@]3(O)C(O)=C1C2=O (stereo partly drawn) [Compound 27, (4S,4aS,5aR,12aS)-9-((6-dimethyl-3-azabicyclo[3.1.0]hexan-3-yl)methyl)-4,7-bis(dimethylamino)-3,10,12,12a-tetrahydroxy-1,1′-dioxo-1,4,4a,5,5a,6,11,12a-octahydrotetracene-2-carboxamide]	–	–	–	–	–	–	0.125 (≈ 0.215 µM)	0.125 (≈ 0.215 µM)	0.125 (≈ 0.215 µM)	2 (≈ 3.44 µM)	4 (≈ 6.89 µM)	0.5 (≈ 0.861 µM)	0.5 (≈ 0.861 µM)	–
CN(C)c1cc(CN2CC3CCCC3C2)c(O)c2c1C[C@H]1C[C@H]3[C@H](N(C)C)C(O)=C(C(N)=O)C(=O)[C@@]3(O)C(O)=C1C2=O (stereo partly drawn) [Compound 28, (4S,4aS,5aR,12aS)-4,7-bis(dimethylamino)-9-((hexahydrocyclopenta[c]pyrrol-2(1H)-yl)methyl)-3,10,12,12a-tetrahydroxy-1,1′-dioxo-1,4,4a,5,5a,6,11,12a-octahydrotetracene-2-carboxamide]	–	–	–	–	–	–	0.125 (≈ 0.215 µM)	0.06 (≈ 0.103 µM)	0.125 (≈ 0.215 µM)	1 (≈ 1.72 µM)	2 (≈ 3.44 µM)	1 (≈ 1.72 µM)	0.5 (≈ 0.861 µM)	–
CN(C)c1cc(CN2CC3CCCCC3C2)c(O)c2c1C[C@H]1C[C@H]3[C@H](N(C)C)C(O)=C(C(N)=O)C(=O)[C@@]3(O)C(O)=C1C2=O (stereo partly drawn) [Compound 29, (4S,4aS,5aR,12aS)-9-((1H-isoindol-2(3H,3aH,4H,5H,6H,7H,7aH)-yl)methyl)-4,7-bis(dimethylamino)-3,10,12,12a-tetrahydroxy-1,11-dioxo-1,4,4a,5,5a,6,11,12a-octahydrotetracene-2-carboxamide]	–	–	–	–	–	–	0.25 (≈ 0.42 µM)	0.125 (≈ 0.21 µM)	0.25 (≈ 0.42 µM)	1 (≈ 1.68 µM)	4 (≈ 6.73 µM)	2 (≈ 3.36 µM)	1 (≈ 1.68 µM)	–
CN(C)c1cc(CN2CCC3CCCCC3C2)c(O)c2c1CC1CC3[C@H](N(C)C)C(O)=C(C(N)=O)C(=O)[C@@]3(O)C(O)=C1C2=O (stereo partly drawn) [Compound c, reference compound]	–	–	–	–	–	–	0.25 (≈ 0.411 µM)	0.5 (≈ 0.821 µM)	0.5 (≈ 0.821 µM)	4 (≈ 6.57 µM)	16 (≈ 26.3 µM)	4 (≈ 6.57 µM)	1 (≈ 1.64 µM)	–
CN(C)c1cc(CN2CCC3(CCCC3)CC2)c(O)c2c1CC1CC3[C@H](N(C)C)C(O)=C(C(N)=O)C(=O)[C@@]3(O)C(O)=C1C2=O (stereo partly drawn) [Compound d, reference compound]	2 (≈ 3.29 µM)	2 (≈ 3.29 µM)	8 (≈ 13.1 µM)	4 (≈ 6.57 µM)	8 (≈ 13.1 µM)	1 (≈ 1.64 µM)	–	–	–	–	–	–	–	–
